Some results are limits rather than exact numbers.

Chain of HPK1 (MAP4K1) (Q92918 whole entry, species assumed): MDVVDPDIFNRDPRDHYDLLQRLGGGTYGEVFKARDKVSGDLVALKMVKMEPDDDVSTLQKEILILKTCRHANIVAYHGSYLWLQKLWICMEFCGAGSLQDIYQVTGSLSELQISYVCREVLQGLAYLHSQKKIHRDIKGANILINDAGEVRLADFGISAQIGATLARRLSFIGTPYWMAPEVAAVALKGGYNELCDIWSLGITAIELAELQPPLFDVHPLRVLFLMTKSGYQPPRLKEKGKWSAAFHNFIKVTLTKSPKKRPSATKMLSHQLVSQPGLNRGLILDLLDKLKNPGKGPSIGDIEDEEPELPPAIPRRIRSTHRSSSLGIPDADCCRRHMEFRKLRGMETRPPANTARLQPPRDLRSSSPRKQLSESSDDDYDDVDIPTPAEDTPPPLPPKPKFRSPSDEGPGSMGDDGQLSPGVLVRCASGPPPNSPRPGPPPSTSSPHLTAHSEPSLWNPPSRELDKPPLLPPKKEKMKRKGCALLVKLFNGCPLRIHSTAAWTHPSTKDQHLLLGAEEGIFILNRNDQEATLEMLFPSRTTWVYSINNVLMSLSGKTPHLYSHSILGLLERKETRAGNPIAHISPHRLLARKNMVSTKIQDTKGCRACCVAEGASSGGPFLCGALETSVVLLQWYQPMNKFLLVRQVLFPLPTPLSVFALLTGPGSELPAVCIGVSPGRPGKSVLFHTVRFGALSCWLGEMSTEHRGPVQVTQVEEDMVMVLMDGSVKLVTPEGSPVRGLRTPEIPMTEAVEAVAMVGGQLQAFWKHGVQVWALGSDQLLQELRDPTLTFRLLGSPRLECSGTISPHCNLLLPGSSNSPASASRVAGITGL

The assay has as its target HPK1 (MAP4K1) (Homo sapiens, UniProt Q92918). Nature of the assay: HPK1 (MAP4K1) kinase Lantha screen assay. In kind it is biochemical. As for the experimental part: The effect of the compounds on the activity of HPK1 (MAP4K1) kinase were assessed by Lantha screen assay. • 1. 1×kinase buffer was prepared (50 mM HEPES, pH 7.5, 10 mM MgCl2, 4 mM DT • 2. Compound and assay plates preparation: • 2-1) The compound was diluted to 100× of the final desired highest inhibitor concentration in reaction by 100% DMSO. For example, if a compound was tested at […], then a solution at 500 µM in DMSO was prepared in this step. • 2-2) For each tested compound, the compound was transferred in tubes to one well on a 96-well storage plate and serially diluted by transferring […] of 100% DMSO in the next well and so forth for a total of 6 concentrations. • 2-3) 100 μl of 100% DMSO were added to two empty wells to serve as no compound control and no enzyme control in the same 96-well plate. The resulting plate was labeled as the source plate. • 2-4) 40 μl of compound from source plate were transferred to a new 384-well Echo plate as the intermediate plate. 100 nl of each well from the 384-well Echo plate were transferred to a 384-well assay plate in duplicates. For example, A1 of the 384-well Echo plate was transferred to A1 and A2 of the 384-well plate. A2 of the 384-well Echo plate was transferred to A3 and A4 of the 384-well plate, and so on; • 3. Kinase reaction: a solution of MAP4K1 in 1× kinase buffer at 2-fold the final concentration of each reagent in the assay was prepared. 5 μl of kinase solution was added to each well of the assay plate, except for control wells without enzyme (add 5 μl of 1× kinase buffer instead). The plate was then shaken, then incubated at room temperature for 10 min. A substrate solution of Fluorescein-PKC and ATP in 1× kinase reaction buffer at 2-fold of the final concentration of each reagent desired in the assay was prepared. 5 μl of substrate solution was added to each well of the assay plate to start reaction. The plate was shaken, then covered, and incubated at room temperature for 90 minutes.
Kinase detection: detection solution of 2-fold of final concentration in Antibody Dilution Buffer was prepared. 10 μl of detection solution was added to each well of the assay plate to stop the reaction. The mixtures were mixed briefly with Centrifuge and incubated at room temperature 60 minutes before reading on a plate reader for fluorescence. Data was collected on Envision with excitation at 340 nm and emission at 520 nm and 495 nm.
The term IC50 denotes the midpoint of a concentration-inhibition curve. The low end stands for greater potency, the high end for weaker potency. For `Cc1cc(Nc2ncc3c(n2)N2CCN=C2C(c2cc(NC(=O)c4cc(C(F)(F)F)ccn4)ccc2C)=C3)ccn1` [Compound 212, N-(4-methyl-3-(2-((2-methylpyridin-4-yl)amino)-8,9-dihydroimidazo[1′,2′:1,6]pyrido[2,3-d]pyrimidin-6-yl)phenyl)-4-(trifluoromethyl)picolinamide], the IC50 is < 100 nM.
As for `Cc1cnccc1Nc1ncc2c(n1)N1CCN=C1C(c1cc(NC(=O)c3cc(C(F)(F)F)ccn3)ccc1C)=C2` [Compound 213, N-(4-methyl-3-(2-((3-methylpyridin-4-yl)amino)-8,9-dihydroimidazo[1′,2′:1,6]pyrido[2,3-d]pyrimidin-6-yl)phenyl)-4-(trifluoromethyl)picolinamide], the half-maximal inhibitory concentration (IC50) is < 100 nM.
With `Cc1ccc(NC(=O)c2cc(C(F)(F)F)ccn2)cc1C1=Cc2cnc(Nc3ccncc3)nc2N2CCN=C12` [Compound 214, N-(4-methyl-3-(2-(pyridin-4-ylamino)-8,9-dihydroimidazo[1′,2′:1,6]pyrido[2,3-d]pyrimidin-6-yl)phenyl)-4-(trifluoromethyl)picolinamide], the IC50 is < 100 nM.
With `Cc1ccc(NC(=O)c2cc(C(F)(F)F)ccn2)cc1C1=Cc2cnc(Nc3cccnc3)nc2N2CCN=C12` [Compound 215, N-(4-methyl-3-(2-(pyridin-3-ylamino)-8,9-dihydroimidazo[1′,2′:1,6]pyrido[2,3-d]pyrimidin-6-yl)phenyl)-4-(trifluoromethyl)picolinamide] the figure was < 100 nM.
The result for `Cc1ccc(NC(=O)c2cc(C(F)(F)F)ccn2)cc1C1=Cc2cnc(Nc3ccccn3)nc2N2CCN=C12` [Compound 216, N-(4-methyl-3-(2-(pyridin-2-ylamino)-8,9-dihydroimidazo[1′,2′:1,6]pyrido[2,3-d]pyrimidin-6-yl)phenyl)-4-(trifluoromethyl)picolinamide] reads 100 to 10000 nM; that for `Cc1ccc(NC(=O)c2cc(C(F)(F)F)ccn2)cc1C1=Cc2cnc(Nc3ccncc3F)nc2N2CCN=C12` [Compound 219, N-(3-(2-((3-fluoropyridin-4-yl)amino)-8,9-dihydroimidazo[1′,2′:1,6]pyrido[2,3-d]pyrimidin-6-yl)-4-methylphenyl)-4-(trifluoromethyl)picolinamide], 100 to 10000 nM; that for `Cc1ccc(NC(=O)c2cc(C(F)(F)F)ccn2)cc1C1=Cc2cnc(Nc3ncccc3F)nc2N2CCN=C12` [Compound 220, N-(3-(2-((3-fluoropyridin-2-yl)amino)-8,9-dihydroimidazo[1′,2′:1,6]pyrido[2,3-d]pyrimidin-6-yl)-4-methylphenyl)-4-(trifluoromethyl)picolinamide], 100 to 10000 nM.
With `COc1ccc(Nc2ncc3c(n2)N2CCN=C2C(c2cc(NC(=O)c4cc(C(F)(F)F)ccn4)ccc2C)=C3)cn1` [Compound 221, N-(3-(2-((6-methoxypyridin-3-yl)amino)-8,9-dihydroimidazo[1′,2′:1,6]pyrido[2,3-d]pyrimidin-6-yl)-4-methylphenyl)-4-(trifluoromethyl)picolinamide] the figure was < 100 nM; with `COc1ncccc1Nc1ncc2c(n1)N1CCN=C1C(c1cc(NC(=O)c3cc(C(F)(F)F)ccn3)ccc1C)=C2` [Compound 222, N-(3-(2-((2-methoxypyridin-3-yl)amino)-8,9-dihydroimidazo[1′,2′:1,6]pyrido[2,3-d]pyrimidin-6-yl)-4-methylphenyl)-4-(trifluoromethyl)picolinamide], < 100 nM; with `COc1ccncc1Nc1ncc2c(n1)N1CCN=C1C(c1cc(NC(=O)c3cc(C(F)(F)F)ccn3)ccc1C)=C2` [Compound 223, N-(3-(2-((4-methoxypyridin-3-yl)amino)-8,9-dihydroimidazo[1′,2′:1,6]pyrido[2,3-d]pyrimidin-6-yl)-4-methylphenyl)-4-(trifluoromethyl)picolinamide], 100 to 10000 nM.
For `Cc1ccc(NC(=O)c2cc(C(F)(F)F)ccn2)cc1C1=Cc2cnc(Nc3cnccc3O)nc2N2CCN=C12` [Compound 224, N-(3-(2-((4-hydroxypyridin-3-yl)amino)-8,9-dihydroimidazo[1′,2′:1,6]pyrido[2,3-d]pyrimidin-6-yl)-4-methylphenyl)-4-(trifluoromethyl)picolinamide], the IC50 is 100 to 10000 nM.
`Cc1ccc(NC(=O)c2cc(C(F)(F)F)ccn2)cc1C1=Cc2cnc(Nc3ccccc3F)nc2N2CCN=C12` [Compound 225, N-(3-(2-((2-fluorophenyl)amino)-8,9-dihydroimidazo[1′,2′:1,6]pyrido[2,3-d]pyrimidin-6-yl)-4-methylphenyl)-4-(trifluoromethyl)picolinamide]: the half-maximal inhibitory concentration (IC50) was < 100 nM.
With `Cc1ccc(NC(=O)c2cc(C(F)(F)F)ccn2)cc1C1=Cc2cnc(Nc3cccc(F)c3)nc2N2CCN=C12` [Compound 226, N-(3-(2-((3-fluorophenyl)amino)-8,9-dihydroimidazo[1′,2′:1,6]pyrido[2,3-d]pyrimidin-6-yl)-4-methylphenyl)-4-(trifluoromethyl)picolinamide] the figure was < 100 nM.
Consider `Cc1ccc(NC(=O)c2cc(C(F)(F)F)ccn2)cc1C1=Cc2cnc(Nc3ccc(F)cc3)nc2N2CCN=C12` [Compound 227, N-(3-(2-((4-fluorophenyl)amino)-8,9-dihydroimidazo[1′,2′:1,6]pyrido[2,3-d]pyrimidin-6-yl)-4-methylphenyl)-4-(trifluoromethyl)picolinamide], for which the concentration for half-maximal inhibition (IC50) is < 100 nM.
The result for `Cc1ccc(Nc2ncc3c(n2)N2CCN=C2C(c2cc(NC(=O)c4cc(C(F)(F)F)ccn4)ccc2C)=C3)cc1F` [Compound 228, N-(3-(2-((3-fluoro-4-methylphenyl)amino)-8,9-dihydroimidazo[1′,2′:1,6]pyrido[2,3-d]pyrimidin-6-yl)-4-methylphenyl)-4-(trifluoromethyl)picolinamide] reads < 100 nM; that for `Cc1cnc(Nc2ncc3c(n2)N2CCN=C2C(c2cc(NC(=O)c4cc(C(F)(F)F)ccn4)ccc2C)=C3)s1` [Compound 232, N-(4-methyl-3-(2-((5-methylthiazol-2-yl)amino)-8,9-dihydroimidazo[1′,2′:1,6]pyrido[2,3-d]pyrimidin-6-yl)phenyl)-4-(trifluoromethyl)picolinamide], < 100 nM.
In the case of `Cc1ccc(NC(=O)c2cc(C(F)(F)F)ccn2)cc1C1=Cc2cnc(Nc3ccnn3C)nc2N2CCN=C12` [Compound 235, N-(4-methyl-3-(2-((1-methyl-1H-pyrazol-5-yl)amino)-8,9-dihydroimidazo[1′,2′:1,6]pyrido[2,3-d]pyrimidin-6-yl)phenyl)-4-(trifluoromethyl)picolinamide], the IC50 lay within 100 to 10000 nM.
With `Cc1ccc(NC(=O)c2cc(C(F)(F)F)ccn2)cc1C1=Cc2cnc(Nc3cn(C)nn3)nc2N2CCN=C12` [Compound 237, N-(4-methyl-3-(2-((1-methyl-1H-1,2,3-triazol-4-yl)amino)-8,9-dihydroimidazo[1′,2′:1,6]pyrido[2,3-d]pyrimidin-6-yl)phenyl)-4-(trifluoromethyl)picolinamide] the figure was < 100 nM; with `Cc1ccc(NC(=O)c2cc(C(F)(F)F)ccn2)cc1C1=Cc2cnc(Nc3nnn[nH]3)nc2N2CCN=C12` [Compound 239, N-(3-(2-((1H-tetrazol-5-yl)amino)-8,9-dihydroimidazo[1′,2′:1,6]pyrido[2,3-d]pyrimidin-6-yl)-4-methylphenyl)-4-(trifluoromethyl)picolinamide], 100 to 10000 nM.
